# Measurements reported in ChEMBL document CHEMBL6103568, “An overview of small-molecule agents for the treatment of psoriasis” (Bioorg Med Chem, 2025).
# Legend:
# [1] = biological target: 3',5'-cyclic-AMP phosphodiesterase 4B (Homo sapiens, UniProt Q07343); assay: Inhibition of PDE4B (unknown origin)
# [2] = biological target: Tyrosine-protein kinase JAK2 (Homo sapiens, UniProt O60674); assay: Inhibition of JAK2 (unknown origin)
# Phosphodiesterase 4 = Phosphodiesterase 4 (Homo sapiens, UniProt P27815+Q08499+Q07343+Q08493); assay: Inhibition of PDE4 (unknown origin); type: protein assay
# [3] = biological target: Sphingosine 1-phosphate receptor 1 (Homo sapiens, UniProt P21453); assay: Agonist activity at S1P1 (unknown origin) by HTRF assay; type: functional
# Cytochrome P450 3A5 = Cytochrome P450 3A5 (Homo sapiens, UniProt P20815); assay: Inhibition of CYP3A5 (unknown origin); type: ADME
# Cytochrome P450 3A5, sequence (P20815 whole entry): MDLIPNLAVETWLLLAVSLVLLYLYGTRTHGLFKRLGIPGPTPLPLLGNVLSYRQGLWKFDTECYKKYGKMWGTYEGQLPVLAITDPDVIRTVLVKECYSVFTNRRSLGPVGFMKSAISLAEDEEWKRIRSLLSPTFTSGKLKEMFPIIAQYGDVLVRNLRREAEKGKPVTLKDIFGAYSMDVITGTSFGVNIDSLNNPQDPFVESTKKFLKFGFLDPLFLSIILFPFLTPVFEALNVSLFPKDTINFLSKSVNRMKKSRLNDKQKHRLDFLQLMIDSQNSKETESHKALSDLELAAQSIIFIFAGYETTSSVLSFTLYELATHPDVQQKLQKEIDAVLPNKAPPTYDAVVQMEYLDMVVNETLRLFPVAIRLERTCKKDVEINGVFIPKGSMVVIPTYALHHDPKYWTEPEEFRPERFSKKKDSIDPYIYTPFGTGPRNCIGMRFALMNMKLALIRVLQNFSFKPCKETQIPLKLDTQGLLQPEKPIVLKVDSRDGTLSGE
# Tyrosine-protein kinase JAK2, sequence (O60674 whole entry): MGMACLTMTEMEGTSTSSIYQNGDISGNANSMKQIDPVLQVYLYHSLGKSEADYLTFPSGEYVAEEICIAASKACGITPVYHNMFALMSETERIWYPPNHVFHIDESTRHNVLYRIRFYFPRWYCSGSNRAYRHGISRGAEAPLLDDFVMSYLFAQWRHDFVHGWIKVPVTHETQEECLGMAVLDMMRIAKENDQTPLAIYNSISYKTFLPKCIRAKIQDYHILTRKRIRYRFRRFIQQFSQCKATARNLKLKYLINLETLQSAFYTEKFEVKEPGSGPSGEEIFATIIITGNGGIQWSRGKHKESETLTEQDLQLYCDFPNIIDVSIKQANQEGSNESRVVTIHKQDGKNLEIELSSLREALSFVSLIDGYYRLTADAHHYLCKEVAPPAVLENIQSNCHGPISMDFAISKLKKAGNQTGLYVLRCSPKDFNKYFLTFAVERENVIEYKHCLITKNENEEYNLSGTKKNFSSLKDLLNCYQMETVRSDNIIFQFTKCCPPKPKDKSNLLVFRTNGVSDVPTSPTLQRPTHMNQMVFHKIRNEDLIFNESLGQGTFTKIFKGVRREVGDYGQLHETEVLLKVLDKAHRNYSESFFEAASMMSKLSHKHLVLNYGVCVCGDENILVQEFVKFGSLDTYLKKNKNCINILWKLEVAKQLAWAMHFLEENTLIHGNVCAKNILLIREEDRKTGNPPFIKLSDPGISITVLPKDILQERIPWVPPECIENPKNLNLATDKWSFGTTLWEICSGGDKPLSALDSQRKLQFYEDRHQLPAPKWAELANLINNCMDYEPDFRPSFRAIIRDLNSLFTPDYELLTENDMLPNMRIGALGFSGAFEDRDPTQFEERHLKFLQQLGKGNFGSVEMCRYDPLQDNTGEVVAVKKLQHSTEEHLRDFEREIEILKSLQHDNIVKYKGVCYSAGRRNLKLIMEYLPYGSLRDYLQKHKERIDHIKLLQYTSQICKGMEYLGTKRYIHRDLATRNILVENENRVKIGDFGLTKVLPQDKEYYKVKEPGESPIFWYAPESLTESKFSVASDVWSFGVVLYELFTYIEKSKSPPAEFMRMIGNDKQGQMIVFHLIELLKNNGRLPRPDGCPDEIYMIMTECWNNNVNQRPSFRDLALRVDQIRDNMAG
# Sphingosine 1-phosphate receptor 1, sequence (P21453 whole entry): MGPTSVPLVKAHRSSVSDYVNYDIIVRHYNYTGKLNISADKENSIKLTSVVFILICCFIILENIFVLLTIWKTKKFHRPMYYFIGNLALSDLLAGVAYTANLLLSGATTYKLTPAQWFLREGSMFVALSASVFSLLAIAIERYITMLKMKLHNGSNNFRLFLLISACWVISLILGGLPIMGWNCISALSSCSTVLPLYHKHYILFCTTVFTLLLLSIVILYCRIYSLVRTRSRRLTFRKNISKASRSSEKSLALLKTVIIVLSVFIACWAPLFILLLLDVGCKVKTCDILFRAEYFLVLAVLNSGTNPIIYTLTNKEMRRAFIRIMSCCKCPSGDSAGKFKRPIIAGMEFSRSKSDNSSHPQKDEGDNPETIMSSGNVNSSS
# 3',5'-cyclic-AMP phosphodiesterase 4B, sequence (Q07343 whole entry): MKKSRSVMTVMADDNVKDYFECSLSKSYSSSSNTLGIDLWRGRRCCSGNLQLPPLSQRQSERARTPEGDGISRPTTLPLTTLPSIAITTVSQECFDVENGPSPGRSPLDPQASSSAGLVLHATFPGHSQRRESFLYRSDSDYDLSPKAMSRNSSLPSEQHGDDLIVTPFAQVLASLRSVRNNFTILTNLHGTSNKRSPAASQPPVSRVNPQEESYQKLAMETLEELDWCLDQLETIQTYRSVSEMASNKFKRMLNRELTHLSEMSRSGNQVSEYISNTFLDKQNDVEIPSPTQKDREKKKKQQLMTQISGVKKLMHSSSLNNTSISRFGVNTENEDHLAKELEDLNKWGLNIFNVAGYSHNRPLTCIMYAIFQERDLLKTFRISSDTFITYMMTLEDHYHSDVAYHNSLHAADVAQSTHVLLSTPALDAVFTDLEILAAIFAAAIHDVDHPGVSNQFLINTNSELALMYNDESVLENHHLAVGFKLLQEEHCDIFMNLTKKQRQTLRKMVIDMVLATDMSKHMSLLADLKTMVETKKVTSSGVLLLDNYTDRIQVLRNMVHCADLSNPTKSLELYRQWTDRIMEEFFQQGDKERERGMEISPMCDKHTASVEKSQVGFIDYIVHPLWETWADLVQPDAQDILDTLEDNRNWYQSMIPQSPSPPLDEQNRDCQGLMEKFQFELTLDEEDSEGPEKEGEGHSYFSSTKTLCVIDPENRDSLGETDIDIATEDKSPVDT
compound,measurement,setting,value
COc1ccc([C@H](N2C(=O)c3cccc(NC(C)=O)c3C2=O)S(C)(=O)=O)cc1OC,IC50,[1],74 nM
CCS(=O)(=O)N1CC(CC#N)C1n1cc(-c2ncnc3[nH]ccc23)cn1 (stereo not given),IC50,[2],5.7 nM
CCOc1cc([C@@H](CS(C)(=O)=O)N2C(=O)c3csc(NC(C)=O)c3C2=O)ccc1OC,IC50,Phosphodiesterase 4,114 nM
CCC/N=C1/S/C(=C\c2ccc(OC[C@H](O)CO)c(Cl)c2)C(=O)N1c1ccccc1C,EC50,[3],6 nM
O=C(O)CC1CCN(C(=O)c2ccc(Cl)c(Cn3ccc4cc(C(F)(F)F)cc(Cl)c43)c2Cl)CC1 [CEDIROGANT],IC50,Cytochrome P450 3A5,206 nM
